Source: PubChem BioAssay AID1259408 (Genetic Toxicology Data Bank (GENE-TOX), 2018)
Calls of active or inactive are those of the source. How the calls were made is not given here.

Tested on: GENE-TOX genotoxicity assays, various organisms and cells
Assay: GENE-TOX mutagenicity studies
Conditions: for call: Assay Type: In vivo carcinogenicity studies
[1] = Species/Cell Type: Bacillus subtilis (H17 vs M45), Assay Type: Rec-assay, spot test, DNA effects (bacterial DNA repair), Assay Code: REW-, Evaluation Type: Evaluation A (Pre-1980)
[2] = Species/Cell Type: Salmonella typhimurium (one or more of the five standard strains: TA98, TA100, TA1535, TA1537, and TA1538), Assay Type: Histidine reverse gene mutation, Ames assay, Assay Code: SALT, Evaluation Type: Evaluation A (Pre-1980)
[3] = Species/Cell Type: Human lymphocytes, Assay Type: Sister-chromatid exchange (SCE) in vitro, Assay Code: SCL+, Evaluation Type: Evaluation B (Post-1980)
[4] = Species/Cell Type: Nonhuman, Assay Type: Sister-chromatid exchange (SCE) in vitro, Assay Code: SC2+D, Dose Response: With dose response, Evaluation Type: Evaluation B (Post-1980)
[5] = Species/Cell Type: Salmonella typhimurium (one or more of the five standard strains: TA98, TA100, TA1535, TA1537, and TA1538), Assay Type: Histidine reverse gene mutation, Ames assay, Assay Code: SAL+, Evaluation Type: Evaluation A (Pre-1980)
[6] = Species/Cell Type: Syrian hamster embryo (SHE) cells, Assay Type: Cell transformation, clonal assay, Assay Code: CTC+, Evaluation Type: Evaluation A (Pre-1980)
[7] = Species/Cell Type: Fischer rat embryo (RLV/1706) cells, Assay Type: Cell transformation, viral enhanced, Assay Code: CTR+, Evaluation Type: Evaluation A (Pre-1980)
[8] = Species/Cell Type: Mammalian polychromatic erythrocytes, Assay Type: Micronucleus test, chromosome aberrations, Assay Code: MNTT, Evaluation Type: Evaluation A (Pre-1980)
[9] = Species/Cell Type: Nonhuman, Assay Code: CCG+, Evaluation Type: Evaluation A (Pre-1980)
[10] = Species/Cell Type: Salmonella typhimurium, Assay Type: Forward and reverse gene mutation, body fluid assay, Assay Code: BFU+, Evaluation Type: Evaluation A (Pre-1980)
[11] = Species/Cell Type: Salmonella typhimurium, Assay Type: Forward and reverse gene mutation, host-mediated assay, Assay Code: HMA+, Evaluation Type: Evaluation A (Pre-1980)
[12] = Species/Cell Type: Chinese hamster lung (V79) cells, Assay Type: Forward gene mutation at the HPRT or ouabain locus, Assay Code: V79+, Evaluation Type: Evaluation A (Pre-1980)
[13] = Species/Cell Type: Drosophila melanogaster, Assay Type: Sex-linked recessive lethal gene mutation, Assay Code: SRL-, Evaluation Type: Evaluation A (Pre-1980)

For `[Cl][Sn]([Cl])([Cl])[Cl]`, the mutagenic call [1] was “inactive; negative”.

`Oc1ccc(Cl)c2cccnc12` was tested, and the mutagenic call [2] was “no conclusion”.

With `Cc1nc(N)cc2c1[nH]c1ccccc12` the mutagenic call [3] was “active; positive”, the mutagenic call (Species/Cell Type: Human, Assay Type: Sister-chromatid exchange (SCE) in vitro, Assay Code: SC1+, Evaluation Type: Evaluation B (Post-1980)) was “active; positive” and the mutagenic call [4] was “active; positive”.

With `O=NN(CCCO)CCCCO` the mutagenic call [2] was “no conclusion”.

With `[Cl-].[Cl-].[Cl-].[Ru+3]` the mutagenic call [1] was “inactive; negative”.

With `NC(=O)CCl` the mutagenic call (Species/Cell Type: Syrian hamster embryo (SA7/SHE) cells, Assay Type: Cell transformation, viral enhanced, Assay Code: CT7+, Evaluation Type: Evaluation A (Pre-1980)) was “active; positive”.

`CS(=O)(=O)OCCCNCCCOS(C)(=O)=O` was tested, and the mutagenic call [5] was “active; positive”.

With `c1ccc2c(c1)-c1ccccc1C1OC21` (centres undefined) the mutagenic call (Species/Cell Type: Mouse prostate cells, Assay Type: Cell transformation, Assay Code: CTM-, Evaluation Type: Evaluation A (Pre-1980)) was “inactive; negative” and the mutagenic call [6] was “active; positive”.

`Nc1ccc(-c2ccccc2)cc1` was tested, and the mutagenic call (Species/Cell Type: Escherichia coli polA (W3110 vs P3478), Assay Type: Rec-assay, DNA effects (bacterial DNA repair), Assay Code: RE2+, Evaluation Type: Evaluation A (Pre-1980)) was “active; positive”, the mutagenic call (Species/Cell Type: Escherichia coli polA (W3119 vs P3478), Assay Type: Rec-assay, DNA effects (bacterial DNA repair), Assay Code: RE1T, Evaluation Type: Evaluation A (Pre-1980)) was “no conclusion” and the mutagenic call [7] was “active; positive”. For the same compound, the mutagenic call (Species/Cell Type: Human diploid fibroblasts, Assay Type: Unscheduled DNA synthesis (UDS) in vitro, DNA effects, Assay Code: UDH-, Evaluation Type: Evaluation A (Pre-1980)) was “inactive; negative”, the mutagenic call [8] was “no conclusion” and the mutagenic call (Species/Cell Type: Mouse embryo (AKR/ME) cells, Assay Type: Cell transformation, Assay Code: CTK+, Evaluation Type: Evaluation A (Pre-1980)) was “active; positive”. The call [9] was “active; positive”, the mutagenic call (Species/Cell Type: Nonhuman, Assay Type: Sister-chromatid exchange (SCE) in vivo, Assay Code: SC3+, Evaluation Type: Evaluation B (Post-1980)) was “active; positive” and the mutagenic call (Species/Cell Type: Rat primary hepatocytes, Assay Type: Unscheduled DNA synthesis (UDS) in vitro, DNA effects, Assay Code: UDP+, Evaluation Type: Evaluation A (Pre-1980)) was “active; positive”. For the same compound, the mutagenic call (Species/Cell Type: Saccharomyces cerevisiae, Assay Type: Mitotic recombination or gene conversion, Assay Code: YEH+, Evaluation Type: Evaluation A (Pre-1980)) was “active; positive”, the mutagenic call (Species/Cell Type: Salmonella typhimurium (one or more of the five standard strains: TA98, TA100, TA1535, TA1537, and TA1538), Assay Type: Histidine reverse gene mutation, Ames assay, Assay Code: SAL+*, Activation: With metabolic activation, Evaluation Type: Evaluation A (Pre-1980)) was “active; positive” and the mutagenic call [10] was “active; positive”. For the same compound, the mutagenic call [11] was “active; positive” and the mutagenic call [6] was “active; positive”.

In the case of `O=C[C@H](NC(=O)N(CCCl)N=O)[C@@H](O)[C@H](O)[C@H](O)CO`, the mutagenic call [12] is reported as “active; positive”, the mutagenic call (Species/Cell Type: Drosophila melanogaster, Assay Type: Sex-linked recessive lethal gene mutation, Assay Code: SRL+, Evaluation Type: Evaluation A (Pre-1980)) is reported as “active; positive” and the call (Species/Cell Type: Nonhuman, Assay Code: CCG+L, Evaluation Type: Evaluation A (Pre-1980)) is reported as “active; positive”. For the same compound, the mutagenic call [4] was “active; positive” and the mutagenic call (Species/Cell Type: Saccharomyces cerevisiae, Assay Type: Mitotic recombination or gene conversion, Assay Code: YEC+, Evaluation Type: Evaluation A (Pre-1980)) was “active; positive”.

For `NC(=O)N(CCCl)N=O`, the mutagenic call [12] was “active; positive”.

With `C=CC=O` the mutagenic call [4] was “active; positive”.

`C/C=C1/C[C@@H](C)[C@@](C)(O)C(=O)OC[C@H]2CCN3CC[C@@H](OC1=O)[C@@H]23` was tested, and the mutagenic call (Species/Cell Type: Drosophila melanogaster, Assay Type: Sex-linked recessive lethal gene mutation, Assay Code: SRLT, Evaluation Type: Evaluation A (Pre-1980)) was “no conclusion”.

For `c1csc(-c2ccc(-c3cccs3)s2)c1`, the mutagenic call (Species/Cell Type: Nonhuman, Assay Type: Sister-chromatid exchange (SCE) in vitro, Assay Code: SC2T, Evaluation Type: Evaluation B (Post-1980)) was “no conclusion”.

In the case of `CN(N=O)C(=O)Nc1ccccc1`, the mutagenic call [4] is reported as “active; positive”.

For `COc1c(OC)c(O)c2c(=O)c(OC)c(-c3ccc(O)c(O)c3)oc2c1OC`, the mutagenic call (Species/Cell Type: Mammalian polychromatic erythrocytes, Assay Type: Micronucleus test, chromosome aberrations, Assay Code: MNT+, Evaluation Type: Evaluation B (Post-1980)) was “active; positive”.

With `Cc1cc(C(C)(C)C)c(O)c(C(C)(C)C)c1` the mutagenic call (Species/Cell Type: Allium cepa, Assay Type: Chromosome aberrations, Assay Code: ALC+, Evaluation Type: Evaluation A (Pre-1980)) was “active; positive”, the mutagenic call (Species/Cell Type: Drosophila melanogaster, Assay Type: Aneuploidy, whole sex chromosome loss, chromosome aberrations, Assay Code: DAC+M, Evaluation Type: Evaluation A (Pre-1980)) was “active; positive” and the mutagenic call [13] was “inactive; negative”. The mutagenic call (Species/Cell Type: Drosophila melanogaster, Sex: Male, Assay Type: Heritable translocation test, chromosome aberrations, Assay Code: DHTT, Evaluation Type: Evaluation A (Pre-1980)) was “no conclusion”, the mutagenic call [8] was “no conclusion” and the mutagenic call (Species/Cell Type: Mouse, Sex: Male, Assay Type: Specific locus test, gene mutation, Assay Code: SLT-, Evaluation Type: Evaluation A (Pre-1980)) was “inactive; negative”. The mutagenic call (Species/Cell Type: Mouse, Sex: Male, Assay Type: Sperm morphology, Assay Code: SPIT, Evaluation Type: Evaluation A (Pre-1980)) was “no conclusion” and the mutagenic call (Species/Cell Type: Salmonella typhimurium (one or more of the five standard strains: TA98, TA100, TA1535, TA1537, and TA1538), Assay Type: Histidine reverse gene mutation, Ames assay, Assay Code: SAL-, Evaluation Type: Evaluation A (Pre-1980)) was “inactive; negative”.

In the case of `C=Cc1cn([C@H]2C[C@H](O)[C@@H](CO)O2)c(=O)[nH]c1=O`, the mutagenic call [3] is reported as “active; positive” and the mutagenic call (Species/Cell Type: Human, Assay Type: Sister-chromatid exchange (SCE) in vitro, Assay Code: SC1+D, Dose Response: With dose response, Evaluation Type: Evaluation B (Post-1980)) is reported as “active; positive”.

`COc1cccc2c1C(=O)c1c(O)c3c(c(O)c1C2=O)C[C@@](O)(C(=O)CO)C[C@@H]3O[C@H]1C[C@H](N)[C@H](O)[C@H](C)O1` was tested, and the mutagenic call [12] was “active; positive”, the mutagenic call (Species/Cell Type: Chinese hamster ovary (CHO) cells, Assay Type: Forward gene mutation at the HPRT locus, Assay Code: CHO+, Evaluation Type: Evaluation B (Post-1980)) was “active; positive” and the mutagenic call [7] was “active; positive”. For the same compound, the mutagenic call (Species/Cell Type: Human lymphocytes or leukocytes, Assay Type: Chromosome aberrations in vitro, Assay Code: CY7+, Evaluation Type: Evaluation A (Pre-1980)) was “active; positive”, the mutagenic call (Species/Cell Type: Human lymphocytes, Assay Type: Sister-chromatid exchange (SCE) in vitro, Assay Code: SCL+D, Dose Response: With dose response, Evaluation Type: Evaluation B (Post-1980)) was “active; positive” and the mutagenic call (Species/Cell Type: Human lymphocytes, Assay Type: Sister-chromatid exchange (SCE) in vivo, Assay Code: SCY+D, Dose Response: With dose response, Evaluation Type: Evaluation A (Pre-1980)) was “active; positive”. The mutagenic call (Species/Cell Type: Human, Assay Type: Sister-chromatid exchange (SCE) in vitro, Assay Code: SC1+D, Dose Response: With dose response, Evaluation Type: Evaluation A (Pre-1980)) was “active; positive”, the mutagenic call (Species/Cell Type: Human, Sex: Male, Assay Type: Sperm morphology, Assay Code: SPH+, Evaluation Type: Evaluation A (Pre-1980)) was “active; positive” and the mutagenic call (Species/Cell Type: Mammalian polychromatic erythrocytes, Assay Type: Micronucleus test, chromosome aberrations, Assay Code: MNT+, Evaluation Type: Evaluation A (Pre-1980)) was “active; positive”. The mutagenic call (Species/Cell Type: Mouse, Sex: Male, Assay Type: Sperm morphology, Assay Code: SPI+, Evaluation Type: Evaluation A (Pre-1980)) was “active; positive”, the call [9] was “active; positive” and the mutagenic call (Species/Cell Type: Nonhuman, Assay Type: Sister-chromatid exchange (SCE) in vitro, Assay Code: SC2+D, Dose Response: With dose response, Evaluation Type: Evaluation A (Pre-1980)) was “active; positive”. The mutagenic call (Species/Cell Type: Nonhuman, Assay Type: Sister-chromatid exchange (SCE) in vivo, Assay Code: SC3+D, Dose Response: With dose response, Evaluation Type: Evaluation A (Pre-1980)) was “active; positive” and the mutagenic call [5] was “active; positive”.

In the case of `CCN(CC)CCn1nc2c3c(c(CO)ccc31)Sc1cc(Cl)ccc1-2`, the mutagenic call [13] is reported as “inactive; negative”, the mutagenic call (Species/Cell Type: Fischer rat embryo (RLV/1706) cells, Assay Type: Cell transformation, viral enhanced, Assay Code: CTR-, Evaluation Type: Evaluation A (Pre-1980)) is reported as “inactive; negative” and the mutagenic call (Species/Cell Type: Mouse lymphoma (L5178Y) cells, Assay Type: Forward gene mutation at the thymidine kinase (TK) locus, chromosome aberrations, Assay Code: L51+, Evaluation Type: Evaluation A (Pre-1980)) is reported as “active; positive”. For the same compound, the mutagenic call (Species/Cell Type: Neurospora crassa, Assay Type: Forward gene mutation, Assay Code: NEF+, Evaluation Type: Evaluation A (Pre-1980)) was “active; positive”, the mutagenic call (Species/Cell Type: Saccharomyces cerevisiae, Assay Type: Reverse gene mutation, Assay Code: YER+, Evaluation Type: Evaluation A (Pre-1980)) was “active; positive” and the mutagenic call [5] was “active; positive”. The mutagenic call [10] was “active; positive” and the mutagenic call [11] was “active; positive”.

In the case of `c1ccc2nccnc2c1`, the mutagenic call (Species/Cell Type: Mouse, Sex: Male, Assay Type: Sperm morphology, Assay Code: SPI-, Evaluation Type: Evaluation A (Pre-1980)) is reported as “inactive; negative”.
